Columns and labels:
[1] = parameters: method as in earlier work; conditions: 40 mg once daily 5 days per week, ref data on file with ARIAD Pharmaceuticals, Inc./Merck & Co.; cited from earlier work
[2] = parameters: method as in PMID 22037923; conditions: cited from earlier work
advanced solid tumors = assay: Antitumor activity, investigator assessment by RECIST v1.1; type: in vivo, human
Protocol: All patients were to have computed tomography or magnetic resonance imaging scans at baseline, every 2 cycles during treatment, and at the time of treatment discontinuation. Local investigator assessment of treatment response was performed using RECIST v1.1 [43].

[3] = 1 patient with pineoblastoma, 22 mg/m^2

In the case of `CO[C@H]1C[C@@H]2CC[C@@H](C)[C@@](O)(O2)C(=O)C(=O)N2CCCC[C@H]2C(=O)O[C@H]([C@H](C)C[C@@H]2CC[C@@H](OP(C)(C)=O)[C@H](OC)C2)CC(=O)[C@H](C)/C=C(\C)[C@@H](O)[C@@H](OC)C(=O)[C@H](C)C[C@H](C)/C=C/C=C/C=C/1C` [ridaforolimus], the “Day 5 AUC0–24h in adults, estimated geometric mean” value [1] is given as 1,739 h•ng/mL, the “Blood–brain barrier passage” value [2] is given as “crosses the blood–brain barrier” and the “Patients discontinued due to progressive disease” value (advanced solid tumors; 33 mg/m^2 (n = 13), 77%) is given as 10 patients. For the same compound, the Progression-free survival (advanced solid tumors; 1 patient with diffuse intrinsic pontine glioma) was over 42 months, the “Duration of stable disease” value (advanced solid tumors; 1 patient with diffuse intrinsic pontine glioma, 33 mg/m^2, as of January 2016) was 46 cycles and the “Duration of stable disease” value (advanced solid tumors; [3]) was 12 cycles. For the same compound, the Progression-free survival (advanced solid tumors; [3]) was 12.8 months, the “Partial or complete response” value (advanced solid tumors; all patients, N = 20) was “None of the patients had a partial or complete response” and the “Patients with evidence of clinical benefit” value (advanced solid tumors; of the 20 treated pediatric patients (10%)) was 2 patients.

Reference: article PMC5356695, “A phase 1 study of oral ridaforolimus in pediatric patients with advanced solid tumors” (Oncotarget, 2016)
